Read-outs that look alike come from different tables or passages of the source.
Tests used:
[1] = tested on: UVB-induced skin cancers; settings: p.o.; 38% in placebo treated controls; cited from earlier work
[2] = tested on: II-4 cells in SCID mice; assay: Third study: topical alpha-DFMO, triamcinolone or the combination on II-4 tumor volume in SCID mice; assay type: in vivo, mouse; settings: single agent, topical daily from 24 hours after implantation; alpha-DFMO 5% or 10%, triamcinolone 0.05% or 0.1%; FIG. 6
Protocol: The control groups received either no treatment (n=4), or the ointment base (hydrophilic ointment, U.S.P. alone (n=4), or the ointment base (hydrophilic ointment, U.S.P. alone (n=4). Treatments were given daily to the tumor-bearing […] skin continuously beginning 24 hours after tumor implantation. Palpable tumors were measured bi-dimensionally using calipers, three times per week, until tumor sizes approximated 1,500 mm^3 (about 1.5 g). The mice were then euthanized.

[3] = Skin reactions after topical application in studies treating actinic keratoses; assay type: in vivo, human; settings: alpha-DFMO alone, without topical steroid or NSAID, past studies
Source text: The new combination also provides a new method for treating vulvar neoplasia which is much more likely to be tolerated than currently available methods. […] Though topical application to the inside of the mouth may be more difficult, it is preferably achieved by providing a thick gel or cream, and applying to the affected area, preferably during the middle of the night when the mouth is dry.

[4] = tested on: Human Cervical Epithelial and Cancerous Cell Lines; settings: in vitro, dose dependent and time dependent, partially through inducing apoptosis; cited from earlier work
[5] = tested on: actinic keratoses; settings: topical hydrophilic cream, human subjects; cited from earlier work
[6] = tested on: human colon tumor xenograft (T6) cells; settings: in vitro; cited from earlier work
[7] = tested on: UVB-induced skin cancers; settings: topical, acetone vehicle; cited from earlier work
[8] = tested on: colon adenocarcinomas; settings: studies referred to by Reddy et al; cited from earlier work
[9] = tested on: II-4 human squamous cell skin cancer cells; assay: In vitro sulforhodamine B surviving fraction study of alpha-DFMO, triamcinolone and diclofenac; assay type: cell-based; settings: single drug, Day 1 to Day 7
Protocol: This study was directed to II-4 human squamous cell skin cancer cells.
The cell culture was maintained as a monolayer culture. The cells were plated in 96 well microtiter plates on Day 0 of the study. Some of such wells were used as control wells, so no drugs were added thereto. The aforementioned combination of drugs was added to the microtiter test wells on Day 1. On Day 7, the plates were fixed with cold 10% trichloroacetic acid, and then washed four times with distilled water. Each plate was then stained with 0.4% sulforhodamine B. Excess stain was then removed by washing the plate four times with 1% acetic acid. The stained dye is then solubilized with 50 mM Tris. The stained plates were then “read”, i.e., measured for optical density, on an automatic plate reader at 540 nm. A lower optical density corresponds to a smaller volume of cancerous cells, and a higher optical density corresponds to a larger volume of cancerous cells. A surviving fraction factor fs is then computed for the treated well plates by taking the mean optical density of the treated well plates and dividing by the mean optical density of the control well plates.
As explained in the aforementioned article by Alberts, et al., a mathematically-derived expected fraction factor (fs*) can be computed for each three-drug combination by multiplying together the individual fraction factors for the three individual drugs. A ratio can then be computed for the actual experimentally-determined fraction factor fs divided by the expected fraction factor fs*, and this ratio is presented in the rightmost column of the table in FIG. 7. […] The lower the ratio, the more synergistic is the combination.

[10] = Systemic uptake after topical alpha-DFMO, animal studies; assay type: in vivo; settings: topical application
Source text: The generic name for alpha-DFMO is eflomithine, which is a racemic mixture of two enantiomers. […] Nonetheless, it may be possible to obtain the advantages of the present invention as described above using only one or the other of the two enantiomers that form the racemic mixture of alpha-DFMO; accordingly, the use of the term “alpha-DFMO” herein should be understood, for purposes of the present patent application, to include both the racemic mixture of the two enantiomers that normally make up alpha-DFMO, as well as each of the two enantiomers that collectively make up the racemic mixture of alpha-DFMO.

[11] = tested on: polyamine de novo synthesis and DNA polymerase; settings: colon and small intestine; cited from earlier work
[12] = tested on: human lung adenocarcinoma cell line (A549); settings: A549, in vitro; cited from earlier work
[13] = tested on: cervical intraepithelial neoplasia level III; settings: cited from earlier work
[14] = topical, cited from earlier work
[15] = tested on: actinic keratoses; settings: 0.5% cream added to topical fluorouracil; cited from earlier work
[16] = 0.06 to 1.0 g/m^2 per day for 30 days

In the case of `NCCC[C@](N)(C(=O)O)C(F)F` (racemic) [alpha-DFMO, Alpha-Difluoromethylornithine], the “UVB-induced skin cancers in treated animals” value [1] is listed as 9%, the “rate of tumor growth (tumor volume over fifty days)” value [2] is listed as “decreases the rate of tumor growth” and the “incidence of skin reactions” value [3] is listed as about 20%. For the same compound, the “growth of cervical pre-cancerous and cancerous cells” value [4] was “inhibits the growth”, the “number of AKs on the arms” value [5] was “reduced the number of AKs” and the growth inhibition [6] was “dose-dependent growth-inhibitory effect”. The UVB-induced skin cancers [7] was “dramatically reduced”, the “effect on colon adenocarcinomas” value [8] was “inhibited colon adenocarcinomas” and the “surviving fraction factor fs” value ([9]; 50 μM) was 0.749. For the same compound, the “surviving fraction factor fs” value ([9]; 75 μM) was 0.807, the systemic uptake [10] was “negligible systemic uptake” and the “DMH-induced activation of polyamine de novo synthesis and DNA polymerase” value [11] was “completely prevented”. For the same compound, the growth inhibition [12] was “dose-dependent growth-inhibitory effect”, the overall response rate ([13]; 0.06 to 1.0 g/m^2 per day for 30 days, 30 women) was 50% and the “patients experiencing a complete response” value [13, 16] was “five out of thirty”. The “patients experiencing a partial response (reduction to levels I or II)” value [13, 16] was “ten out of thirty”, the toxicity [13, 16] was “minimal toxicity” and the “dose down to which serum polyamine modulation was significant” value ([13]; serum) was 0.125 g/m^2 per day. For the same compound, the “dose level down to which tissue polyamine modulation was significant” value ([13]; tissue) was 0.5 g/m^2 per day.
For `O=c1[nH]cc(F)c(=O)[nH]1` [5-FU, 5-fluorouracil], the tolerability ([14]; in the vagina) is listed as “relatively well tolerated” and the tolerability ([14]; on the vulva) is listed as “extremely poorly tolerated”.
For `CC(=O)Oc1ccccc1C(=O)O` [aspirin], the “effect on colon adenocarcinomas” value [8] is listed as “inhibited colon adenocarcinomas”.
In the case of `C=CCSSCC=C` [diallyl disulfide], the “effect on colon adenocarcinomas” value [8] is given as “inhibited colon adenocarcinomas”.
In the case of `O=C(O)Cc1ccccc1Nc1c(Cl)cccc1Cl` [diclofenac], the “surviving fraction factor fs” value ([9]; 150 μM) was 0.703 and the “surviving fraction factor fs” value ([9]; 175 μM) was 0.518.
In the case of `CC(C)Cc1ccc(C(C)C(=O)O)cc1` (centres unmarked) [ibuprofen], the “effect on colon adenocarcinomas” value [8] is given as “inhibited colon adenocarcinomas”.
In the case of `Cc1c(-c2cnccn2)ssc1=S` [oltipraz], the “effect on colon adenocarcinomas” value [8] is given as “inhibited colon adenocarcinomas”.
In the case of `CN1C(C(=O)Nc2ccccn2)=C(O)c2ccccc2S1(=O)=O` [piroxicam], the “effect on colon adenocarcinomas” value [8] is given as “inhibited colon adenocarcinomas”.
In the case of `CC1=C(CC(=O)O)c2cc(F)ccc2/C1=C\c1ccc([S+](C)[O-])cc1` (centres unmarked) [sulindac], the “effect on colon adenocarcinomas” value [8] is given as “inhibited colon adenocarcinomas”.
In the case of `CC1(C)O[C@@H]2C[C@H]3[C@@H]4CCC5=CC(=O)C=C[C@]5(C)[C@@]4(F)[C@@H](O)C[C@]3(C)[C@]2(C(=O)CO)O1` [triamcinolone, triamcinolone acetonide], the “rate of tumor growth (tumor volume over fifty days)” value [2] is given as “decreases the rate of tumor growth”, the “effect on inflammatory response to fluorouracil” value [15] is given as “reduce inflammatory response” and the “effect on the effectiveness of fluorouracil” value [15] is given as “did not alter the effectiveness of the fluorouracil”. For the same compound, the “surviving fraction factor fs” value ([9]; 100 μM) was 0.999, the “surviving fraction factor fs” value ([9]; 150 μM) was 0.999 and the “surviving fraction factor fs” value ([9]; 200 μM) was 0.872.
